What all share (format): in vivo
Experiment [1] has as its system 3rd-instar larvae of Spodoptera exigua Hübner. Kind of experiment: Joint toxicity (LC50, CTC) of I-72 + indoxacarb, leaf-disk dipping, Example 1, Table 1. The following applies: Spodoptera exigua, cabbage leaf-disk dipping, 72 h, A = compound I-72, B = indoxacarb, read-out: LC50. As to the method:
Test subject: 3rd-instar larvae of Spodoptera exigua Hübner, a sensitive strain reared indoors.
Test conditions: temperature: 24-26° C., humidity: RH 60%, and illumination: L:D=14:10.
Preparation method: the test pesticides were accurately weighed respectively with an electronic analytical balance. After the two technical materials were respectively added into an appropriate amount of solvent and completely dissolved, the stock solution of the required concentration was prepared with water containing 0.1% Tween 80. The stock solutions of the two active ingredients were mixed in a certain ratio to prepare a mixed solution, which was then diluted respectively into a series of pesticide solutions with a certain concentration gradient according to the experimental design dosage.
Experimental method: the dipping method was adopted. […]
The co-toxicity coefficient (CTC value) of the mixture was calculated according to the following formula:
[formula] • in the formula: ATI-measured toxicity index of the mixture; S-LC50 of the standard pesticide; and M-LC50 of the mixture. […]
[formula] • in the formula: CTC-co-toxicity coefficient; ATI-measured toxicity index of the mixture; and TTI-theoretical toxicity index of the mixture. • CTC-co-toxicity coefficient • ATI-measured toxicity index of the mixture • TTI-theoretical toxicity index of the mixture

Experiment [2] relates to 3rd-instar larvae of Spodoptera frugiperda. Description: Joint toxicity of I-72 + spinosad, corn leaf dipping, Example 10, Table 10. To be noted: Spodoptera frugiperda, foliar, 72 h, A = compound I-72, B = spinosad, read-out: LC50. From the text:
Test subject: 3rd-instar larvae of Spodoptera frugiperda, a sensitive strain reared indoors.
Experimental method: the dipping method was adopted. The corn leaves cultivated in the greenhouse were taken, cut into leaf segments of 5 cm long, dipped in the prepared pesticide solution for 10 s, and then cut into small pieces of 1.5 cm×1.5 cm after natural air-drying in the shade. These pieces were placed in a 24-well culture plate, and the standard test insects were introduced, with 48 insects for each treatment. The treated test insects were placed in an observation room under certain conditions. The reaction of the test insects was regularly observed, and the number of dead and live insects was investigated 72 h later.
The test conditions, the preparation of the pesticide solution and the evaluation method were the same as those in Example 1.

Experiment [3] concerns Aphis gossypii Glover nymphs. Description: Joint toxicity of I-72 + organophosphorus insecticides, cotton leaf spraying, Example 17, Table 17. The following applies: nymphs, cotton leaf spraying, 48 h, A = compound I-72, B = diazinon, read-out: LC50. As to the method: Test target: Aphis gossypii Glover nymphs, a sensitive strain reared indoors.
(§1) Preparation of the pesticide solution: according to different test requirements, the test samples were accurately weighed respectively with an electronic analytical balance. The technical pesticides were dissolved in acetone, and then diluted with 0.1% Tween 80 water into a series of pesticide solutions with a certain concentration gradient according to the experimental design dosage.
Experimental method: first, cotton leaves with uniform and consistent Aphis gossypii were selected, with about 20 insects on each leaf. Then, they were evenly sprayed with the pesticide solution in the order from low dosage to high dosage according to the experimental design, with 1.5 mL for each leaf and 3 replicates for each treatment. In addition, a blank control was set up.
The treated test materials were placed in an observation room, and the temperature, humidity and illumination of the observation room could be adjusted as needed. The number of dead and live insects was investigated 48 hours later. The corrected mortality rate was calculated using the Abbott's formula, and statistical analysis was performed with the DPS data processing software to obtain the toxicity regression equation, LC50 value and 95% confidence limit of each single test pesticide and each mixture of different ratios. Then, the co-toxicity coefficient of each ratio was calculated using the Sun Y-P method to evaluate the mixing effect (the same as in Example 1).

Experiment [4] relates to adult Tetranychus cinnabarinus (Boisduval). Description: Joint toxicity of I-72 + spirodiclofen, potted-seedling spraying, Example 25, Table 25. To be noted: Tetranychus cinnabarinus, A = compound I-72, B = spirodiclofen, 72 hours, read-out: LC50. Here is the method: Test target: adult Tetranychus cinnabarinus (Boisduval), a sensitive strain reared indoors.
as §1
Experimental method: the activity of the mixture against the adult Tetranychus cinnabarinus (Boisduval) was determined by adopting the potted-seedling spraying method. First, the adult Tetranychus cinnabarinus of uniform size were transferred onto the leaves of kidney bean seedlings at the stage when the first pair of true leaves was fully expanded. After the adult mites had stabilized, the base number was counted. Then, the uniform spraying was performed with the pesticide solution in the order from low to high dose according to the experimental design, with 1.5 mL for each seedling and 3 replicates for each treatment. […]
The treated test materials were placed in an observation room, and the temperature, humidity and illumination of the observation room could be adjusted as needed. […] Then, the co-toxicity coefficient of each ratio was calculated using the Sun Y-P method to evaluate the mixing effect, as in Example 1.

Experiment [5] has as its system Nilaparvata lugens (Stal) nymphs. Kind of experiment: Joint toxicity of I-72 + imidacloprid, Example 70, Table 70. To be noted: A = compound I-72, B = imidacloprid, potted-seedling spraying, 72 hours, read-out: LC50. Here is the method: Test target: Nilaparvata lugens (Stal) nymphs, a sensitive strain reared indoors.
as §1
Experimental method: the activity of the mixture against the Nilaparvata lugens (Stal) nymphs was determined by adopting the potted-seedling spraying method. First, rice seedlings were planted in culture pots. Uniform spraying was performed with the pesticide solution in the order from low dosage to high dosage according to the experimental design, with 2 mL for each seedling. Then, Nilaparvata lugens nymphs of uniform size were transferred onto the rice seedlings, with 3 replicates for each treatment. In addition, a blank control was set up.
The treated test materials were placed in an observation room, and the temperature, humidity and illumination of the observation room could be adjusted as needed. The number of dead and live insects was investigated 72 hours later. […] Then, the co-toxicity coefficient of each ratio was calculated using the Sun Y-P method to evaluate the mixing effect (the same as in Example 1).

The LC50 is the concentration lethal to half of the exposed cells or organisms. On to `CN(C(=O)c1ccc2c(c1)OC(F)(F)O2)c1cccc(C(=O)Nc2c(Br)cc(C(F)(C(F)(F)F)C(F)(F)F)cc2OC(F)F)c1F` [Compound I-72], for which the LC50 in experiment [1] was 0.227 µg/mL; in experiment [2] it was 0.0777 µg/mL; in experiment [3], 2.83 µg/mL; in experiment [4], 35.1 µg/mL; in experiment [5] it was 243 µg/mL.
